Assay results taken from patent US20230348394A1, “COMPOSITIONS AND METHODS FOR TREATING MUSCULAR DYSTROPHIES” (The Regents of the University of California, priority 2020, published 2023).

Legend:
SSPN gene expression = SSPN gene expression (qPCR) in dystrophin-deficient H2K mdx myotubes; format: cell-based, murine; conditions: 0.5 to 50 μM
Description: C2C12 cells (American Type Culture Collection) were grown at 37° C. with 5% CO2 in growth medium containing DMEM (Gibco) with 20% FBS (Sigma-Aldrich). Upon reaching 90-100% confluency, myoblasts were induced to differentiate by replacing the medium with differentiation medium consisting of DMEM with 2% horse serum (Sigma-Aldrich). Conditionally immortalized H2K WT and mdx myoblasts with a nonsense mutation in exon 23 of dystrophin were a gift from Terrance Partridge, Ph.D. (Children's National Medical Center, Washington, D.C.). […]
RNA from myotubes treated for 48 hrs was extracted from cells using Trizol-based (Thermo Fisher Scientific) phase separation, Chomczynski et al., Biotechniques. […] RNA concentrations were determined using a NanoDrop 1000 (Thermo Fisher Scientific) and 750 ng of RNA in a 20 Id reaction was reverse transcribed using iScript cDNA synthesis (Bio-Rad) with the following cycling conditions: 25° C. for 5 mins, 42° C. for 30 mins, 85° C. for 5 mins. […] For qPCR of human samples, TaqMan assays were used to quantify SSPN (assay ID Hs01025520m 1) and ACTB (assay ID Hs01060665_g1) with the following reaction conditions: 50° C. for 2 mins, 95° C. for 10 mins, 40 cycles of 95° C. for 15 seconds and 62° C. for 1 minute. […]

SSPN mRNA = test: siRNA-mediated knockdown of SSPN in mdx myotubes, SSPN mRNA; format: cell-based, murine
Description: RNA from myotubes treated for 48 hrs was extracted from cells using Trizol-based (Thermo Fisher Scientific) phase separation, Chomczynski et al., Biotechniques. 1993; 15(3):532-4, 6-7. RNA concentrations were determined using a NanoDrop 1000 (Thermo Fisher Scientific) and 750 ng of RNA in a 20 Id reaction was reverse transcribed using iScript cDNA synthesis (Bio-Rad) with the following cycling conditions: 25° C. for 5 mins, 42° C. for 30 mins, 85° C. for 5 mins. For mouse qPCR, SsoFast EvaGreen Supermix (Bio-Rad), 400 nM of each optimized forward and reverse primer (SSPN F: 5′ […] 3′, SSPN R: 5′ […] 3′, BACT F: 5′ […] 3′, BACT R: 5′ […] 3′), and cDNA corresponding to 37.5 ng RNA were used to amplify cDNA measured by QuantStudio 5 Real-Time PCR System (Thermo Fisher Scientific) with the following reaction conditions: 55° C. for 2 mins, 95° C. for 2 mins, 40 cycles of 95° C. for 10 seconds and 62° C. for 30 seconds, and dissociation stage. For qPCR of human samples, TaqMan assays were used to quantify SSPN (assay ID Hs01025520m 1) and ACTB (assay ID Hs01060665_g1) with the following reaction conditions: 50° C. for 2 mins, 95° C. for 10 mins, 40 cycles of 95° C. for 15 seconds and 62° C. for 1 minute. […] Data was analyzed using the ddCT method and normalized to reference gene ACTB with vehicle-treated samples serving as the calibrator (relative expression of vehicle control=1). […]

## CCN(CC)c1ccc2cc(C(=O)Nc3ccc(C(=O)N4CCCCCC4)cc3)c(=O)oc2c1 [OT-9]
SSPN gene expression
  concentration at which the concentration-dependent SSPN mRNA response peaked: 5.5 µM
SSPN mRNA; 24 nM SSPN siRNA plus OT-9
  SSPN mRNA levels under SSPN knockdown: increased SSPN mRNA levels
SSPN mRNA; 24 nM scramble siRNA plus 1, 5 or 10 μM OT-9
  increase of SSPN mRNA relative to the vehicle control: up to 1.4 fold
